Results taken from US20220289794A1, “SYNTHETIC ANTIMICROBIAL PEPTIDES” (priority 2019, published 2022).
In brackets after ≈: the same amount, converted by molar mass. Like-named read-outs stand apart in the source and are kept apart here. Non-standard residues stand in square brackets, D forms with d. Residues, ends and D or L forms follow the SMILES beside them. dDip = N[C@@H](C(=O)O)C(c1ccccc1)c1ccccc1; Dip = N[C@H](C(=O)O)C(c1ccccc1)c1ccccc1; 2Nal = N[C@@H](Cc1ccc2ccccc2c1)C(=O)O; d2Nal = N[C@H](Cc1ccc2ccccc2c1)C(=O)O

Key:
[1] = system: Escherichia coli (ATCC 25922); details: ATCC 25922
[2] = system: Methicillin-resistant Staphylococcus aureus MRSA (ATCC BAA-1556); details: ATCC BAA-1556
in vitro = details: human, fresh human red blood cells (washed), pH 7.4
Method: Hemolytic Assay. We investigated the hemolytic effect (hemolytic assay) of the compounds on fresh human red blood cells to determine the cytotoxicity of the compounds. The hemolytic assay was conducted by serial dilution using 1% Triton X, 0.2% Triton X and PBS buffer pH 7.4 as controls. […] 3 mL of the fresh blood sample was washed severally by adding about 10 mL PBS buffer pH 7.4 and centrifuge at 4000 G until the supernatant was cleared. The washed blood sample was diluted to 20 mL volume to be used in the study. An aliquot of 190 μL blood sample was added to 10 μL compound sample in an Eppendorf tube and incubated for 30 min. After incubation, it was centrifuged at 4000 G for 5 min. 100 μL supernatant aliquot was diluted with 1 mL PBS buffer, and the absorbance was measured at 567 nm for the sample. % hemolysis is calculated as follows:
Where AX is the absorbance at various serial concentrations A0 absorbance of PBS buffer pH 7.4 AX absorbance of 0.2% Triton X control equivalent to 100%

[3] = system: Pseudomonas aeruginosa (ATCC 27883)
S. aureus ATCC 29213 = details: ATCC 29213

| Compound | MIC E. coli ATCC 25922 [1] [µg/mL] | MIC MRSA ATCC BAA-1556 [2] [µg/mL] | HC50 at 0.5 h (in vitro) [µg/mL] | MIC P. aeruginosa ATCC 27883 ([3]; ATCC 27883) [µg/mL] | MIC S. aureus ATCC 29213 (S. aureus ATCC 29213) [µg/mL] | MIC P. aeruginosa ATCC 27883 ([3]; P. aeruginosa ATCC 27883) [µg/mL] |
| --- | --- | --- | --- | --- | --- | --- |
| N=C(N)NCCC[C@H](NC(=O)[C@@H](CCCNC(=N)N)NC(=O)[C@@H](N)CCCNC(=N)N)C(=O)N[C@H](CCCNC(=N)N)C(=O)N[C@@H](C(=O)N[C@@H](C(=O)N[C@@H](C(=O)O)C(c1ccccc1)c1ccccc1)C(c1ccccc1)c1ccccc1)C(c1ccccc1)c1ccccc1 [IFX-070-1] (H-R[dR]R[dR][dDip][dDip][dDip]-OH) | 6.2 (≈ 4.72 µM) | 3.1 (≈ 2.36 µM) | 380 | 12.5 (≈ 9.52 µM) | 3.1 (≈ 2.36 µM) |  |
| N=C(N)NCCC[C@H](NC(=O)[C@H](CCCNC(=N)N)NC(=O)[C@@H](N)CCCNC(=N)N)C(=O)N[C@@H](CCCNC(=N)N)C(=O)N[C@@H](C(=O)N[C@@H](C(=O)N[C@@H](C(=O)O)C(c1ccccc1)c1ccccc1)C(c1ccccc1)c1ccccc1)C(c1ccccc1)c1ccccc1 [IFX-072-1] (H-RRRR[dDip][dDip][dDip]-OH) | 6.2 (≈ 4.72 µM) | 6.2 (≈ 4.72 µM) | 470 | 12.5 (≈ 9.52 µM) | 3.1 (≈ 2.36 µM) |  |
| N=C(N)NCCC[C@@H](N)C(=O)N[C@H](CCCNC(=N)N)C(=O)N[C@H](CCCNC(=N)N)C(=O)N[C@H](CCCNC(=N)N)C(=O)N[C@H](C(=O)N[C@H](C(=O)N[C@H](C(=O)O)C(c1ccccc1)c1ccccc1)C(c1ccccc1)c1ccccc1)C(c1ccccc1)c1ccccc1 [IFX-073-1] (H-[dR][dR][dR][dR][Dip][Dip][Dip]-OH) | 6.2 (≈ 4.72 µM) | 6.2 (≈ 4.72 µM) | 410 | 12.5 (≈ 9.52 µM) | 3.1 (≈ 2.36 µM) |  |
| N=C(N)NCCC[C@@H]1NC(=O)[C@H](CCCNC(=N)N)NC(=O)[C@H](CCCNC(=N)N)NC(=O)[C@H](CCCNC(=N)N)NC(=O)[C@@H](Cc2ccc3ccccc3c2)NC(=O)[C@H](Cc2ccc3ccccc3c2)NC(=O)[C@H](Cc2c[nH]c3ccccc23)NC1=O [IFX-102, c[Arg-Arg-Arg-Arg-Trp-NaI-naI]] (cyclo([2Nal][d2Nal]RRRRW)) | 12.5 (≈ 10.4 µM) | 3.1 (≈ 2.57 µM) | 200 | 25 (≈ 20.7 µM) | 3.1 (≈ 2.57 µM) |  |
| N=C(N)NCCC[C@@H]1NC(=O)[C@H](CCCNC(=N)N)NC(=O)[C@H](CCCNC(=N)N)NC(=O)[C@H](Cc2ccc3ccccc3c2)NC(=O)[C@@H](Cc2ccc3ccccc3c2)NC(=O)[C@H](Cc2c[nH]c3ccccc23)NC(=O)[C@H](CCCNC(=N)N)NC1=O [IFX-103, c[Arg-Arg-Arg-Arg-Trp-naI-NaI]] (cyclo([2Nal]RRRRW[d2Nal])) | 12.5 (≈ 10.4 µM) | 3.1 (≈ 2.57 µM) | 170 |  | 3.1 (≈ 2.57 µM) | 12.5 (≈ 10.4 µM) |
| N=C(N)NCCC[C@@H]1NC(=O)[C@H](CCCNC(=N)N)NC(=O)[C@H](Cc2ccc3ccccc3c2)NC(=O)[C@H](Cc2ccc3ccccc3c2)NC(=O)[C@@H](Cc2c[nH]c3ccccc23)NC(=O)[C@H](CCCNC(=N)N)NC(=O)[C@H](CCCNC(=N)N)NC1=O [IFX-104, c[Arg-Arg-Arg-Arg-trp-NaI-NaI]] (cyclo([2Nal][2Nal]RRRR[dW])) | 12.5 (≈ 10.4 µM) | 3.1 (≈ 2.57 µM) | 155 |  | 3.1 (≈ 2.57 µM) | 12.5 (≈ 10.4 µM) |
| N=C(N)NCCC[C@@H]1NC(=O)[C@H](Cc2ccc3ccccc3c2)NC(=O)[C@H](Cc2ccc3ccccc3c2)NC(=O)[C@H](Cc2c[nH]c3ccccc23)NC(=O)[C@@H](CCCNC(=N)N)NC(=O)[C@H](CCCNC(=N)N)NC(=O)[C@H](CCCNC(=N)N)NC1=O [IFX-105, c[Arg-Arg-Arg-arg-Trp-NaI-NaI]] (cyclo([2Nal][2Nal]RRR[dR]W)) | 12.5 (≈ 10.4 µM) | 3.1 (≈ 2.57 µM) | 130 |  | 3.1 (≈ 2.57 µM) | 12.5 (≈ 10.4 µM) |
| N=C(N)NCCC[C@@H]1NC(=O)[C@H](Cc2ccc3ccccc3c2)NC(=O)[C@H](Cc2ccc3ccccc3c2)NC(=O)[C@H](Cc2c[nH]c3ccccc23)NC(=O)[C@H](CCCNC(=N)N)NC(=O)[C@@H](CCCNC(=N)N)NC(=O)[C@H](CCCNC(=N)N)NC1=O [IFX-106, c[Arg-Arg-arg-Arg-Trp-NaI-NaI]] (cyclo([2Nal][2Nal]RR[dR]RW)) | 25 (≈ 20.7 µM) | 1.5 (≈ 1.24 µM) | 175 |  | 1.5 (≈ 1.24 µM) | 12.5 (≈ 10.4 µM) |
| N=C(N)NCCC[C@@H]1NC(=O)[C@H](CCCNC(=N)N)NC(=O)[C@@H](CCCNC(=N)N)NC(=O)[C@H](CCCNC(=N)N)NC(=O)[C@H](Cc2ccc3ccccc3c2)NC(=O)[C@H](Cc2ccc3ccccc3c2)NC(=O)[C@H](Cc2c[nH]c3ccccc23)NC1=O [IFX-107, c[Arg-arg-Arg-Arg-Trp-NaI-NaI]] (cyclo([2Nal][2Nal]R[dR]RRW)) | 12.5 (≈ 10.4 µM) | 1.5 (≈ 1.24 µM) | 175 | 6.2 (≈ 5.14 µM) | 1.5 (≈ 1.24 µM) |  |
| N=C(N)NCCC[C@@H]1NC(=O)[C@H](CCCNC(=N)N)NC(=O)[C@H](CCCNC(=N)N)NC(=O)[C@@H](CCCNC(=N)N)NC(=O)[C@H](Cc2ccc3ccccc3c2)NC(=O)[C@H](Cc2ccc3ccccc3c2)NC(=O)[C@H](Cc2c[nH]c3ccccc23)NC1=O [IFX-108, c[arg-Arg-Arg-Arg-Trp-NaI-NaI]] (cyclo([2Nal][2Nal][dR]RRRW)) | 12.5 (≈ 10.4 µM) | 1.5 (≈ 1.24 µM) | 350 | 6.2 (≈ 5.14 µM) | 1.5 (≈ 1.24 µM) |  |
| N=C(N)NCCC[C@H]1NC(=O)[C@@H](CCCNC(=N)N)NC(=O)[C@@H](CCCNC(=N)N)NC(=O)[C@@H](CCCNC(=N)N)NC(=O)[C@@H](Cc2ccc3ccccc3c2)NC(=O)[C@@H](Cc2ccc3ccccc3c2)NC(=O)[C@H](Cc2c[nH]c3ccccc23)NC1=O [IFX-109, c[arg-arg-arg-arg-Trp-naI-naI]] (cyclo(W[d2Nal][d2Nal][dR][dR][dR][dR])) | 12.5 (≈ 10.4 µM) | 1.5 (≈ 1.24 µM) | 190 |  | 3.1 (≈ 2.57 µM) | 12.5 (≈ 10.4 µM) |
| N=C(N)NCCC[C@@H](N)C(=O)N[C@H](CCCNC(=N)N)C(=O)N[C@H](CCCNC(=N)N)C(=O)N[C@H](CCCNC(=N)N)C(=O)N[C@@H](Cc1c[nH]c2ccccc12)C(=O)N[C@H](Cc1ccc2ccccc2c1)C(=O)N[C@H](Cc1ccc2ccccc2c1)C(=O)O [IFX-109-1] (H-[dR][dR][dR][dR]W[d2Nal][d2Nal]-OH) | 12.5 (≈ 10.2 µM) | 3.1 (≈ 2.53 µM) | 375 | 12.5 (≈ 10.2 µM) | 3.1 (≈ 2.53 µM) |  |
| N=C(N)NCCC[C@@H]1NC(=O)[C@@H](CCCNC(=N)N)NC(=O)[C@H](CCCNC(=N)N)NC(=O)[C@@H](CCCNC(=N)N)NC(=O)[C@@H](Cc2ccc3ccccc3c2)NC(=O)[C@@H](Cc2ccc3ccccc3c2)NC(=O)[C@H](Cc2c[nH]c3ccccc23)NC1=O [IFX-110, c[arg-Arg-arg-Arg-Trp-naI-naI]] (cyclo([dR]R[dR]RW[d2Nal][d2Nal])) | 12.5 (≈ 10.4 µM) | 1.5 (≈ 1.24 µM) | 225 |  | 3.1 (≈ 2.57 µM) | 12.5 (≈ 10.4 µM) |
| N=C(N)NCCC[C@@H](N)C(=O)N[C@@H](CCCNC(=N)N)C(=O)N[C@H](CCCNC(=N)N)C(=O)N[C@@H](CCCNC(=N)N)C(=O)N[C@@H](Cc1c[nH]c2ccccc12)C(=O)N[C@H](Cc1ccc2ccccc2c1)C(=O)N[C@H](Cc1ccc2ccccc2c1)C(=O)O [IFX-110-1] (H-[dR]R[dR]RW[d2Nal][d2Nal]-OH) | 25 (≈ 20.4 µM) | 3.1 (≈ 2.53 µM) | 330 | 25 (≈ 20.4 µM) | 3.1 (≈ 2.53 µM) |  |
| N=C(N)NCCC[C@H](NC(=O)[C@@H](CCCNC(=N)N)NC(=O)[C@@H](N)CCCNC(=N)N)C(=O)N[C@H](CCCNC(=N)N)C(=O)N[C@@H](Cc1c[nH]c2ccccc12)C(=O)N[C@H](Cc1ccc2ccccc2c1)C(=O)N[C@H](Cc1ccc2ccccc2c1)C(=O)O [IFX-111-1] (H-R[dR]R[dR]W[d2Nal][d2Nal]-OH) | 25 (≈ 20.4 µM) | 3.1 (≈ 2.53 µM) | 310 | 25 (≈ 20.4 µM) | 3.1 (≈ 2.53 µM) |  |
